Legend:
Type in all cases: cell-based
[1] = target: T1, GSPT1 protein (Homo sapiens, UniProt P15170); test: GSPT1 protein degradation in HL60 cells (Western blot); conditions: for Degradation of GSPT1 protein in HL60 cells (FIG. 1, in words): FIG. 1, concentration not stated; for remaining GSPT1 protein at 0.01 µM: HL-60, compound at 10 nM, 24 h, gray value relative to Ctrl (DMSO), read-out: Remaining amount of GSPT1 protein (@10 nM/Ctrl)
T1 construct: degradation of myc and GSPT1 proteins in HL60 cells; endogenous in cells; host or cells: HL60
Protocol: (§1) HL60 cells in the exponential growth phase were digested and plated into a 6-well plate at 1×10^6 cells per well. The cell culture medium was RPMI-1640 (meilunbio, MA0215). After a day of adherent growth of the cells, the compound of the present invention was added as a test drug for culture, and proteins were extracted 24 h later (Ctrl meant adding only DMSO at the same volume).
(§2) In the 6-well plate, the culture medium RPMI-1640 (meilunbio, MA0215) was removed, and the cells were washed once with PBS, digested with trypsin, and centrifuged and collected separately into 1.5 mL centrifuge tubes. 100 μL of RIPA lysis buffer (containing 100 μM PMSF) was added to each tube, mixed thoroughly, allowed to stand on ice for 30 min and then centrifuged at 12000 rpm at 4° C. using a centrifuge for 20 min. The supernatant was used for Western blotting experiments. The sample can be stored at −80° C.
(§3) By using the BCA protein concentration determination kit (from Thermo Fisher, Cat. No. 23225), the BSA standard determination solution and the samples to be tested (the samples to be tested can be diluted and then tested) were prepared according to the table A below. Samples were added to the 96-well plate. Each well was supplemented with PBS to 20 μL, and then 200 μL of BCA working solution (prepared according to the kit) was added respectively and mixed evenly. The plate was placed at 60° C. for 10 min, and then the absorbance at 562 nm was detected. After the reading was recorded, a standard curve was plotted using concentration gradients of the standards, and the absorbance of the samples was substituted to calculate the protein concentration of the samples.
(§4) • 2.1 Protein denaturation: RIPA protein buffer (purchased from Solarbio, Cat. No. R0010) and 5× Loading Buffer (SDS, glycerin, bromophenol blue, TRIS) (purchased from Solarbio, Cat. No. P1040) were added, and the protein samples were denatured at 100° C. for 5 min. • 2.2 Sample loading and electrophoresis: 10% precast gel and the corresponding electrophoresis buffer were used. The same mass of protein sample and protein ladder (purchased from thermo, Cat. No. 26617) were loaded into each well, and electrophoresis at 200 V was performed for 30 min. • 2.3 […]: The gel was excised to remove the excess part. Transferring to PVDF membrane was performed by the wet transfer method (before use, it was necessary to activate the PVDF membrane with methanol for 1 min) at 300 mA for 2 h, during which a lot of heat was generated, and thus cooling with an ice box was required. • 2.4 Blocking: After the transferring, the PVDF membrane was placed in 5% skim milk and blocked with shaking at room temperature for 1 h. • 2.5 Incubating with primary antibody: The PVDF membrane was cut according to the molecular weight indicated on the marker and placed in c-myc (purchased from abcam, Cat. No. ab32072), or GSPT1 (purchased from abcam, Cat. No. ab234433), or CK1α (purchased from abcam, Cat. No. ab206652), or IKZF2 (purchased from proteintech, Cat. No. 13554-1-AP), and GAPDH (purchased from CST, Cat. No. #97166) primary antibodies. The antibodies were diluted with TBST buffer (a solution prepared from TRIS, KCL and NaCl and adjusted to pH 7.4 with hydrochloric acid, and Tween 20 was added) at a ratio of 1:1000, and blocked overnight on a shaker at 4° C. • 2.6 Incubating with secondary antibody: The PVDF membrane incubated with the primary antibody was washed with TBST for 3 times, each time for 10 min. After washing, the membrane was placed in the secondary antibody of the corresponding species, and incubated at room temperature in a shaker for 2 h. • 2.7 Washing membrane and exposure: After incubated with the secondary antibodies, the membrane was washed 3 times with TBST on a shaker, 10 minutes each time. […]

[2] = target: T2, IKZF2 protein (Homo sapiens, UniProt Q9UKS7); test: IKZF2 protein degradation (Western blot); conditions: compound at 10 nM, 24 h, gray value relative to Ctrl (DMSO)
T2 construct: endogenous in cells; host or cells: HL60
Protocol: as §1, §2, §3
(§5) • 2.1 Protein denaturation: RIPA protein buffer (purchased from Solarbio, Cat. No. R0010) and 5× Loading Buffer (SDS, glycerin, bromophenol blue, TRIS) (purchased from Solarbio, Cat. No. P1040) were added, and the protein samples were denatured at 100° C. for 5 min. • 2.2 Sample loading and electrophoresis: 10% precast gel and the corresponding electrophoresis buffer were used. […]

[3] = tested on: HL60 cells; test: Anti-proliferation on HL60 cells (CellTiter-Glo, 3 days); conditions: Homo sapiens, HL-60, 72 h, 3 days incubation, CTG luminescence, IC50 by XLfit, read-out: HL60 cells Proliferation inhibitory activity
Summary of the method: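 Log-phase cells were plated at 20000 cells/well and treated with compound dilutions in RPMI-1640 for 3 days, with 0.1% DMSO controls. Proliferation was read by CellTiter-Glo luminescence. IC50 was fitted from the inhibition rates.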

[4] = target: T3, CK1α protein (Homo sapiens, UniProt P48729); test: CK1α protein degradation (Western blot); conditions: compound at 10 nM, 24 h, gray value relative to Ctrl (DMSO)
T3 construct: endogenous in cells; host or cells: HL60
Protocol: as §1, §2, §3, §5

[5] = target: T4, c-Myc protein (Homo sapiens, UniProt P01106); test: c-Myc protein degradation in HL60 cells (Western blot); conditions: for remaining activity at 0.01 µM: HL-60, compound at 10 nM, 24 h, gray value relative to Ctrl (DMSO), read-out: Remaining amount of c-Myc protein (@10 nM/Ctrl)
T4 construct: degradation of myc and GSPT1 proteins in HL60 cells; endogenous in cells; host or cells: HL60
Protocol: as §1, §2, §3, §4

T4 sequence (P01106 whole entry): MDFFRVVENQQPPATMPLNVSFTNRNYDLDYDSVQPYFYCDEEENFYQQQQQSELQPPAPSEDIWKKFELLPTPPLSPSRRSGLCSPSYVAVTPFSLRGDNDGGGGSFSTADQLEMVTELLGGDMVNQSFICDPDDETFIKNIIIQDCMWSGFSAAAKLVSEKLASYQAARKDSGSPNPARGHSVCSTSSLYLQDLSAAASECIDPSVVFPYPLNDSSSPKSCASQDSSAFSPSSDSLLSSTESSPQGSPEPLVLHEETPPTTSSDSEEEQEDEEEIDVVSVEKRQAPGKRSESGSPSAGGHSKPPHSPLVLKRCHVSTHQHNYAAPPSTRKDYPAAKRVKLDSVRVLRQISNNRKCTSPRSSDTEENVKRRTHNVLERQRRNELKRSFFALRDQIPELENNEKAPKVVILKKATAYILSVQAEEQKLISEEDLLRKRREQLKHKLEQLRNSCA
T3 sequence (P48729 whole entry): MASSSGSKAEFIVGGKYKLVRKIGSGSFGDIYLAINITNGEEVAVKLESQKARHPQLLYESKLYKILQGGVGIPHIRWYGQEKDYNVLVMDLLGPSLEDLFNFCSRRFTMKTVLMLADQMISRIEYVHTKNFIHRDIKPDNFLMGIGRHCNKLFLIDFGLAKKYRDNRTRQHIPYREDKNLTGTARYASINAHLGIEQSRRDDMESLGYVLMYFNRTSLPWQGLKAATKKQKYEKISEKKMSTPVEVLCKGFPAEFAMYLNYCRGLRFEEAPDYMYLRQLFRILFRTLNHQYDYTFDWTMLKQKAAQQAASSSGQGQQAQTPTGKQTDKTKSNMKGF
T2 sequence (Q9UKS7 whole entry): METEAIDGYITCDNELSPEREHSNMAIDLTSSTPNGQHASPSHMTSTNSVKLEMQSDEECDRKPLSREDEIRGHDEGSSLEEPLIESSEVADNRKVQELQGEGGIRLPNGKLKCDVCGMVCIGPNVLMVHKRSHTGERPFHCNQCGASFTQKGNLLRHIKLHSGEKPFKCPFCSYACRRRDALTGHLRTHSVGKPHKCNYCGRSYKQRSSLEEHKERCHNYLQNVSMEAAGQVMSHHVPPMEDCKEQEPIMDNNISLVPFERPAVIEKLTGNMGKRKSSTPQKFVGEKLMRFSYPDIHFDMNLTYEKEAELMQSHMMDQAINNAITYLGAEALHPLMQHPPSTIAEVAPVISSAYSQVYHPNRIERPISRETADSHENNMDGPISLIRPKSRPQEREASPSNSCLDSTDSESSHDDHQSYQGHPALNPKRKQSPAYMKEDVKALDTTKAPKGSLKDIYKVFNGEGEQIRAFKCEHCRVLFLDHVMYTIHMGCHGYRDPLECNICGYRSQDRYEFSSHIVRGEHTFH
T1 sequence (P15170 whole entry): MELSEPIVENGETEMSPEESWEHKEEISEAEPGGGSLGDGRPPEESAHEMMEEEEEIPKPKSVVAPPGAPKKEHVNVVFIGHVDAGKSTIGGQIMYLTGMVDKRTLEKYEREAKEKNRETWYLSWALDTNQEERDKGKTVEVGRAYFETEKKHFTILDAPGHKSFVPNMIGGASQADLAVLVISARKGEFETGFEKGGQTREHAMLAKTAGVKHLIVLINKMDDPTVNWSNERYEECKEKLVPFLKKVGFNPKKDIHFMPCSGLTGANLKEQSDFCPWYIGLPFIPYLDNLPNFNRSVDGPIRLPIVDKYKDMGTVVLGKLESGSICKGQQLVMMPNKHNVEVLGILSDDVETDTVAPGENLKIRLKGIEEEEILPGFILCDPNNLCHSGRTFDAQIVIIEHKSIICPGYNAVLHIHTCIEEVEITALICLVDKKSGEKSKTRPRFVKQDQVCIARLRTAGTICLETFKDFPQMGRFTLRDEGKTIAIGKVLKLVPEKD

Row | Structure (SMILES) | Degradation of GSPT1 protein in HL60 cells (FIG. 1, in words) [1] | remaining GSPT1 protein at 0.01 µM [1] | Remaining amount of IKZF2 protein (@10 nM/Ctrl) [2] | IC50 [3] | Remaining amount of CK1α protein (@10 nM/Ctrl) [4] | remaining activity at 0.01 µM [5] | Degradation of c-Myc protein in HL60 cells at 10 nM (FIG. 1, in words) [5] | Degradation of GSPT1 protein in HL60 cells at 10 nM (FIG. 1, in words) ([1]; 10 nM)
1 | O=C1CCC(N2Cc3cc(CNCC4CCN(c5ncc(-c6cccc7ccccc67)cn5)CC4)ccc3C2=O)C(=O)N1 (centres unmarked) [Compound A62] | significantly degrade GSPT1 protein | 16% | 45% | 2 nM | 27% | 17% |  | 
2 | O=C1CCC(N2Cc3cc(CNC(=O)C(F)(F)c4ccc(Cl)cc4)ccc3C2=O)C(=O)N1 (centres unmarked) [CC-90009, reference compound] |  |  | 85% |  | 78% |  | no ability to degrade c-Myc protein | 
3 | O=C1CCC(N2Cc3cc(CNCC4CCN(c5ncc(-c6cccc(Cl)c6)cc5C(F)(F)F)CC4)ccc3C2=O)C(=O)N1 (centres unmarked) [Compound A80] | significantly degrade GSPT1 protein | 3% | 17% | < 0.2 nM | 5% | 0% | completely degrade both GSPT1 and c-Myc | completely degrade both GSPT1 and c-Myc
4 | O=C1CCC(N2Cc3cc(CNCC4CCN(c5ncc(-c6cccc(F)c6)cc5F)CC4)ccc3C2=O)C(=O)N1 (centres unmarked) [Compound A108] |  | 29% |  | < 0.2 nM |  | 2% |  | 
5 | O=C1CCC(N2Cc3cc(CNCC4CCN(c5ncc(-c6cccc(Cl)c6)cc5F)CC4)ccc3C2=O)C(=O)N1 (centres unmarked) [Compound A73] |  | 0% |  | < 0.2 nM |  | 0% |  | 
6 | COc1cccc(-c2cnc(N3CCC(CNCc4ccc5c(c4)CN(C4CCC(=O)NC4=O)C5=O)CC3)c(F)c2)c1 (centres unmarked) [Compound A112] |  | 0% |  | < 0.2 nM |  | 0% |  | 
7 | O=C1CC[C@H](N2Cc3cc(CNCC4CCN(c5ncc(-c6cccc(Cl)c6)cc5C(F)(F)F)CC4)ccc3C2=O)C(=O)N1 [Compound A81] |  | 0% |  | < 0.2 nM |  | 0% |  | 
8 | O=C1CCC(N2Cc3cc(CNCC4CCN(c5ncc(-c6ccc(Cl)cc6)cc5F)CC4)ccc3C2=O)C(=O)N1 (centres unmarked) [Compound A74] |  | 10% |  | 1.1 nM |  | 104% |  | 
9 | O=C1CCC(N2Cc3cc(CNCC4CCN(c5ncc(-c6ccccc6)cc5C(F)(F)F)CC4)ccc3C2=O)C(=O)N1 (centres unmarked) [Compound A92] |  | 0% |  | < 0.2 nM |  | 6% |  | 
10 | CC(NCc1ccc2c(c1)CN(C1CCC(=O)NC1=O)C2=O)C1CCN(c2ncc(-c3cccc(Cl)c3)cc2F)CC1 (centres unmarked) [Compound A105] |  | 7% |  | 55 nM |  | 333% |  | 
11 | O=C1CCC(N2Cc3cc(CNCC4(F)CCN(c5ncc(-c6cccc(Cl)c6)cc5C(F)(F)F)CC4)ccc3C2=O)C(=O)N1 (centres unmarked) [Compound A83] |  | 0% |  | 1.2 nM |  | 4% |  | 
